In patent US5821353A, “DNA encoding 1,3 beta-D glucan synthase subunits” (Merck & Co., Inc., priority 1996, dated 1998):
Converted amounts (≈) assume the structure as drawn. Like-named read-outs stand apart in the source and are kept apart here. *1 amine or outer side, *2 acyl side, *3 side chain or, on linkers, in order; H or OH if unused. Where a SMILES comes first, the peptide text is derived from it. Bridges are numbered along the chain shown (N, C = ends). [ ]: non-standard residue; d: D form. The star is where a group is joined. ξ: configuration not given here. Orn(4R-OH,5R-OH) = O=C([C@H](C[C@@H](O)[C@@H](O)N[*:3])N[*:1])[*:2]; hTyr(3S-OH,4S-OH) = N[C@H](C(=O)O)[C@H](O)[C@@H](O)c1ccc(O)cc1; ξOrn(4,5-diOH) = O=C(C(CC(O)C(O)N[*:3])N[*:1])[*:2]; ξhTyr(βξ-OH,γξ-OH) = NC(C(=O)O)C(O)C(O)c1ccc(O)cc1; Pro(3S-OH,4S-Me) = C[C@H]1CN[C@H](C(=O)O)[C@H]1O; Benzoyl(4-octyloxy) = CCCCCCCCOc1ccc(C(=O)*)cc1; ξPro(3ξ-OH,4ξ-Me) = CC1CNC(C(=O)O)C1O; Palmitoyl = CCCCCCCCCCCCCCCC(=O)*; Hyp = O=C(O)[CH]1C[CH](O)CN1

What was measured:
S. cerevisiae MY2256 = experiment: MIC assay; assay type: cell-based; settings: Saccharomyces cerevisiae, MY2256, 42 h
Experimental: (§1) The sensitivities of pcr1(fks2-1) fks1-1 and pcr1(fks2-1) FKS1 strains to L-733,560, L-636,947 (Aculeacin), and L-687,781 (Dihydropapulocandin) were determined in MIC assays. Briefly, strains were grown to stationary phase in 5.0 ml of liquid YPAD medium. MY2256 precultures were grown in liquid YPAD10Ca. MIC assays were performed in flat well microtiter plates in triplicate. Each well of the microtiter plate was filled with 100 mcL of YPAD medium. To the first well, 100 mcL of a 4× solution of drug in YPAD medium was added. To serve as a control, a stock solution of […] of YPAD was made. 100 mcL of this solution was added to the initial well for strains grown in the presence of solvent but the absence of drug. Two-fold serial dilutions of the drug were performed down the plate.
(§2) Cultures were diluted to 5×10^5 cells/ml in YPAD (1 OD660 =3.3×10^7 cells/ml). 100 mcL of diluted culture was added to each well, resuspended, and incubated at 28° C. After 42 hours, cultures were resuspended and cells densities measured in an SLT Laboratories 340 ATTC microtiter plate reader.

[1] = system: S. cerevisiae YFK0931-07B; experiment: MIC assay; assay type: cell-based; settings: Saccharomyces cerevisiae, YFK093107B, 42 h
Experimental: as §1, §2

S. cerevisiae R560-1C = experiment: secondary screen, zone size on agar; assay type: cell-based, Saccharomyces cerevisiae; settings: 20 ng FK506, 10 mcg CsA, 10 mcg L733,560, 20 mcg aculeacin, 20 mcg papulacandin
Experimental: (§3) For positively identifying glucan synthase inhibitors, screening with strain R560-1C and its parent W303-1A was instituted in a manner identical to that described for calcineurin inhibitors. Complete loss of a zone, or marked reduction in size, on R560-1C versus W303-1A indicates a glucan synthase inhibitor. No zones are seen with calcineurin inhibitors using this pair of strains.
(§4) Each strain is grown at 28°-30° C. in YPAD/10 mM CaCl2 medium with shaking at 220 rpm (to mid or late log phase). The cultures are diluted 1:10 with water, and the OD values of the dilutions are measured at 600 nm (against a blank of YPAD/10 mM CaCl2 similarly diluted 1:10 in water). The OD value is multiplied by 10 to estimate the OD of the culture. Portions (100 ml) of YPAD/10 mM CaCl2 medium containing 1.5% agar, equilibrated at 45° C. in a water bath, are seeded with culture such that the final cell density in the agar would have an OD value of 0.015 (i.e., 3×10^6 cfu/ml; a sample calculation is provided below). The seeded agar is poured into 500 cm^2 Nunc plates. Once the agar plates have solidified, 10 mcL aliquots of samples containing test compounds, such as fermentation extracts, are dissolved in water, 100% methanol or ethanol, or up to 50% DMSO and are placed on each member of the two-plate set in 11 by 8 arrays.
(§5) The plates are incubated for 48 h at 28°-30° C. Diameters of the zones are read to the outermost edge and recorded in mm. The clarity of the zone is reported as clear (no designation), hazy (h), or very hazy (vh). Very hazy zones are best seen by viewing the plate under an elevated light placed between the assay dish and a dark wall.

S. cerevisiae W303-1A = experiment: secondary screen, zone size on agar; assay type: cell-based, Saccharomyces cerevisiae; settings: 20 ng FK506, 10 mcg CsA, 10 mcg L733,560, 20 mcg aculeacin, 20 mcg papulacandin
Experimental: as §3, §4, §5

[2] = system: S. cerevisiae fks1-1 PCR1 YFK0688-14B; experiment: MIC assay; assay type: cell-based, Saccharomyces cerevisiae; settings: less than 10% growth of no-drug control, 42 hours, 28° C.
Experimental: as §1
as §2, with “reader. The MICs concentrations presented in the table below represent the concentrations of drug that result in less than 10% growth of the strain grown in the absence of drug.” for “reader.”

[3] = system: S. cerevisiae wild type YFK0005; experiment: MIC assay; assay type: cell-based, Saccharomyces cerevisiae; settings: less than 10% growth of no-drug control, 42 hours, 28° C.
Experimental: as §1
as §2, with “reader. The MICs concentrations presented in the table below represent the concentrations of drug that result in less than 10% growth of the strain grown in the absence of drug.” for “reader.”

[4] = system: S. cerevisiae fks1-1 pcr1 (fks2-1): MY2256, YFK0996-11B, MY2259, MY2260; experiment: MIC assay; assay type: cell-based, Saccharomyces cerevisiae; settings: less than 10% growth, 42 hours
Experimental: as §1
as §2, with “reader. The MICs concentrations presented in the table below represent the concentrations of drug that result in less than 10% growth of the strain grown in the absence of drug.” for “reader.”

[5] = system: S. cerevisiae FKS1 pcr1 (fks2-1): MY2257, MY2258; experiment: MIC assay; assay type: cell-based, Saccharomyces cerevisiae; settings: less than 10% growth, 42 hours
Experimental: as §1
as §2, with “reader. The MICs concentrations presented in the table below represent the concentrations of drug that result in less than 10% growth of the strain grown in the absence of drug.” for “reader.”

[6] = system: S. cerevisiae YFK007 (wild type); experiment: primary screen, zone size on agar; assay type: cell-based, Saccharomyces cerevisiae; settings: 20 ng FK506, 10 mcg CsA, 10 mcg L733,560, 20 mcg aculeacin, 20 mcg papulacandin, 48 h
Experimental: as §4, §5

[7] = system: S. cerevisiae YFK532-7C (fks1-1); experiment: primary screen, zone size on agar; assay type: cell-based, Saccharomyces cerevisiae; settings: 20 ng FK506, 10 mcg CsA, 10 mcg L733,560, 20 mcg aculeacin, 20 mcg papulacandin, 48 h
Experimental: as §4, §5

[8] = system: S. cerevisiae YFK798 (fks1-1 + CN); experiment: primary screen, zone size on agar (calcineurin counter screen); assay type: cell-based, Saccharomyces cerevisiae; settings: 20 ng FK506, 10 mcg CsA, 10 mcg L733,560, 20 mcg aculeacin, 20 mcg papulacandin, 48 h
Experimental: Counter screening strains were devised for identifying calcineurin inhibitors. Overexpression of yeast calcineurin in the fks1-1 mutant (strain YFK798) constitutes the most general of these. […] Glucan synthase inhibitors show neither effect and thus can be distinguished from calcineurin inhibitors.
as §4, §5

[9] = system: S. cerevisiae R560-1 / R560-1C (fks1-2); experiment: liquid MIC assay of resistant clone; assay type: cell-based, Saccharomyces cerevisiae
Experimental: Strain W303-1A was transformed by the spheroplast method (MYG) with yeast genomic libraries obtained from D. Botstein (1982. Cell, 28:145-154). Transformants selected on uracil dropout medium were pooled and stored at -80° C. in 20% glycerol. After determining the titer (colony forming units(CFU)/ml), aliquots of the stocks were spread at .congruent.5×10^3 CFU per plate onto uracil dropout medium containing the semisynthetic echinocandin L-733,560 at 0.5 mcg/ml or 1.25 mcg/ml. This concentration of L-733,560 is sufficient to select for resistant clones. Twenty-seven drug resistant colonies were isolated. […] Briefly, L-733,560 was serially diluted across the wells of a sterile microtiter plate such that the concentration in each row ranged from 16 to 0.03 mcg/ml in 2-fold increments after an equal volume of a cell suspension in liquid uracil dropout medium was added. After 24 h at 30° C., plates were read in a spectrophotometer at a wavelength of 600 nm, and the percent of control growth in each well (relative to a no-drug control well) was calculated. […]
Because this strain was isolated as a transfornant from the genomic library, it was expected that resistance would be due to the gene residing on the plasmid contained in R560-1. […] R560-1C was mated to the wild type strain W303-1B, sporulated, dissected, and the sensitivity to L-733,560 quantitated by liquid MIC assay. […]

[10] = system: S. cerevisiae FKS1 pcr1 spores; experiment: drug phenotype of segregants from tetrad analysis; assay type: cell-based, Saccharomyces cerevisiae
Text: YFK0996-11B (MATa fks1-1 pcr1) was also crossed to YFK0005 (MATalpha FKS1 PCR1). In this cross, the pcr1 and fks1-1 mutations segregate independently. In the 16 four-spore and 20 three-spore tetrads, the segregation pattern of 1 Parental Ditype: 1 Non Parental Ditype : 4 Tetratype tetrads is indicative of two unlinked genes. […] Strains MY2257 (also known as YFK1088-23B, MATa FKS1 +pcr1), MY2258 (also known as YFK1088-16D, MATalpha FKS1+pcr1), and YFK1088-02D (MATa FKS1 +pcr1) were segregants from this cross. As shown in the table below, these segregants contain the pcr1 mutation in a wild-type FKS1 background and lack plasmid pDL1 present in the original mutant.

[11] = system: S. cerevisiae haploid strain with the insertion-deletion allele (fks1-5::HIS3 / fks1-6::HIS3); experiment: phenotype of haploid strain with FKS1 insertion-deletion allele; assay type: cell-based, Saccharomyces cerevisiae
Text: An insertion-deletion allele of the fks1-1 complementing DNA was created in the following manner. The 8.8-kb SphI-PstI fragment of pFF133 was inserted between the SphI and PstI sites of the polylinker of the E. coli vector pGEM-5Zf(+) (Promega, Madison, Wis.) giving plasmid pFF174. The 1.3-kb BamHI-XhoI HIS3 fragment from plasmid pJJ215 (J. S. Jones and L. Prakash, Yeast, 6:363-366 (1990)) was inserted by blunt-end ligation (see Current Protocols, p. 3.5.10) between the two KpnI sites of plasmid pFF174 giving plasmids pFF186 (sense orientation) and pFF187 (antisense orientation). The 6.6-kb insertion-deletion fragments were excised by digestion with SstI+SphI and purified by agarose gel electrophoresis. The insertion-deletion mutation was created by one-step gene replacement (see R. Rothstein, GYG, pp. 281-301). This disruption was confirmed by Southern blot hybridization analysis of genomic DNA digested with PstI and probed with the 8.8-kb SphI-PstI fragment from plasmid pFF174. The undisrupted parent gives a single 9.8-kb genomic fragment which hybridizes with the probe. A disruption mutant in which HIS3 is inserted in the sense orientation, for example YFF2409, gives 3.9- and 3.7-kb fragments, while an antisense disruption mutant, for example YFF2411, gives 4.9- and 2.7-kb fragments. […]

[12] = system: S. cerevisiae YFK532-7C (fks1-1) versus YFK007; experiment: sensitivity of fks1-1 mutant relative to FKS1 wild-type strain; assay type: cell-based, Saccharomyces cerevisiae; settings: calcineurin inhibitors

Compound	MIC (S. cerevisiae MY2256)	MIC ([1]; YFK0931-07B, read-out: MIC)	Secondary Screen Zone size (mm) (S. cerevisiae R560-1C)	Secondary Screen Zone size (mm) (S. cerevisiae W303-1A)	Primary Screen Zone size (mm) [6]	Primary Screen Zone size (mm) [7]	Primary Screen Zone size (mm) [8]	drug resistance phenotype of spores [10]	further results
CO[C@H]1C[C@@H]2CC[C@@H](C)[C@@](O)(O2)C(=O)C(=O)N2CCCC[C@H]2C(=O)O[C@H]([C@H](C)C[C@@H]2CC[C@@H](O)[C@H](OC)C2)CC(=O)[C@H](C)/C=C(\C)[C@@H](O)[C@@H](OC)C(=O)[C@H](C)C[C@H](C)/C=C/C=C/C=C/1C [Rapamycin, rapamycin]	0.007 µg/mL (≈ 0.00766 µM)	0.007 µg/mL (≈ 0.00766 µM)	–	–	–	–	–	–	–
CCCCCCCCCCCCCCCC(=O)NC1CC(O)C(O)NC(=O)C2C(O)C(C)CN2C(=O)C(C(C)O)NC(=O)C(C(O)C(O)c2ccc(O)cc2)NC(=O)C2CC(O)CN2C(=O)C(C(C)O)NC1=O [L-636,947, aculeacin] (Palmitoyl-[ξOrn(4,5-diOH)]T[Hyp][ξhTyr(βξ-OH,γξ-OH)]T[ξPro(3ξ-OH,4ξ-Me)]; lactam 1-C; configuration not given here)	–	–	17-20 mm	18-22 mm	22-24 mm	27-30 mm	27-30 mm	–	MIC [2]: 0.5 µg/mL (≈ 0.483 µM); MIC [3]: 1 µg/mL (≈ 0.965 µM); MIC [4]: > 40 µg/mL; MIC [5]: > 40 µg/mL
CCCCCCCCOc1ccc(C(=O)N[C@H]2C[C@@H](O)[C@@H](O)NC(=O)[C@@H]3[C@@H](O)[C@@H](C)CN3C(=O)[C@H]([C@@H](C)O)NC(=O)[C@H]([C@H](O)[C@@H](O)c3ccc(O)cc3)NC(=O)[C@@H]3C[C@@H](O)CN3C(=O)[C@H]([C@@H](C)O)NC2=O)cc1 [L-646,991, cilofungin] ({Benzoyl(4-octyloxy)}-[Orn(4R-OH,5R-OH)]T[Hyp][hTyr(3S-OH,4S-OH)]T[Pro(3S-OH,4S-Me)]; lactam 1-C)	–	–	–	–	–	–	–	–	resistance phenotype in liquid MIC assay [9]: resistance phenotype
CCC1C=C(C)CC(C)CC(OC)C2OC(O)(C(=O)C(=O)N3CCCCC3C(=O)OC(C(C)=CC3CCC(O)C(OC)C3)C(C)C(O)CC1=O)C(C)CC2OC (stereo not shown) [FK520]	0.06 µg/mL (≈ 0.0758 µM)	–	–	–	–	–	–	resistant	MIC [1]: 0.06 µg/mL (≈ 0.0758 µM)
C=CC[C@@H]1/C=C(\C)C[C@H](C)C[C@H](OC)[C@H]2O[C@@](O)(C(=O)C(=O)N3CCCC[C@H]3C(=O)O[C@H](/C(C)=C/[C@@H]3CC[C@@H](O)[C@H](OC)C3)[C@H](C)[C@@H](O)CC1=O)[C@H](C)C[C@@H]2OC [FK506]	0.06 µg/mL (≈ 0.0746 µM)	0.03 µg/mL (≈ 0.0373 µM)	none	none	none	15-17 mm	13 mm	resistant	drug sensitivity phenotype [11]: hypersensitive; sensitivity of YFK532-7C relative to YFK007 [12]: at least a thousand fold more sensitive
